Assay: xn = mol fraction of the nth substance listed
Settings: 101 kPa, Liquid, Vibrating tube method

CCCC[N+](CCCC)(CCCC)CCCC.[Br-] [tetrabutylammonium bromide] + O
Settings | mass density [kg/m3]
276.15 K, x1 = 0.0009 | 1001.35
276.15 K, x1 = 0.0018 | 1002.75
276.15 K, x1 = 0.00359 | 1005.6
276.15 K, x1 = 0.00715 | 1011.37
276.15 K, x1 = 0.01069 | 1017.09
276.15 K, x1 = 0.01421 | 1022.49
276.15 K, x1 = 0.0177 | 1027.72
276.15 K, x1 = 0.02202 | 1033.53
276.15 K, x1 = 0.02631 | 1038.46
276.15 K, x1 = 0.03056 | 1042.53
277.15 K, x1 = 0.0009 | 1001.35
277.15 K, x1 = 0.0018 | 1002.73
277.15 K, x1 = 0.00359 | 1005.52
277.15 K, x1 = 0.00715 | 1011.23
277.15 K, x1 = 0.01069 | 1016.88
277.15 K, x1 = 0.01421 | 1022.16
277.15 K, x1 = 0.0177 | 1027.3
277.15 K, x1 = 0.02202 | 1033.01
277.15 K, x1 = 0.02631 | 1037.94
277.15 K, x1 = 0.03056 | 1040.98
277.15 K, x1 = 0.03478 | 1045.39
277.15 K, x1 = 0.0431 | 1050.63
277.15 K, x1 = 0.05128 | 1054.86
277.15 K, x1 = 0.07499 | 1060.81
278.15 K, x1 = 0.0009 | 1001.32
278.15 K, x1 = 0.0018 | 1002.69
278.15 K, x1 = 0.00359 | 1005.47
278.15 K, x1 = 0.00715 | 1011.09
278.15 K, x1 = 0.01069 | 1016.66
278.15 K, x1 = 0.01421 | 1021.91
278.15 K, x1 = 0.0177 | 1026.96
278.15 K, x1 = 0.02202 | 1032.57
278.15 K, x1 = 0.02631 | 1037.41
278.15 K, x1 = 0.03056 | 1040.41
278.15 K, x1 = 0.03478 | 1044.76
278.15 K, x1 = 0.0431 | 1049.93
278.15 K, x1 = 0.05128 | 1054.13
278.15 K, x1 = 0.07499 | 1060.07
279.18 K, x1 = 0.0009 | 1001.28
279.18 K, x1 = 0.0018 | 1002.65
279.18 K, x1 = 0.00359 | 1005.39
279.18 K, x1 = 0.00715 | 1010.96
279.18 K, x1 = 0.01069 | 1016.45
279.18 K, x1 = 0.01421 | 1021.63
279.18 K, x1 = 0.0177 | 1026.61
279.18 K, x1 = 0.02202 | 1032.11
279.18 K, x1 = 0.02631 | 1036.89
279.18 K, x1 = 0.03056 | 1039.82
279.18 K, x1 = 0.03478 | 1044.11
279.18 K, x1 = 0.0431 | 1049.24
279.18 K, x1 = 0.05128 | 1053.4
279.18 K, x1 = 0.07499 | 1059.33
280.15 K, x1 = 0.0009 | 1001.23
280.15 K, x1 = 0.0018 | 1002.58
280.15 K, x1 = 0.00359 | 1005.29
280.15 K, x1 = 0.00715 | 1010.78
280.15 K, x1 = 0.01069 | 1016.22
280.15 K, x1 = 0.01421 | 1021.32
280.15 K, x1 = 0.0177 | 1026.22
280.15 K, x1 = 0.02202 | 1031.62
280.15 K, x1 = 0.02631 | 1036.32
280.15 K, x1 = 0.03056 | 1039.11
280.15 K, x1 = 0.03478 | 1043.44
280.15 K, x1 = 0.0431 | 1048.51
280.15 K, x1 = 0.05128 | 1052.65
280.15 K, x1 = 0.07499 | 1058.55
281.15 K, x1 = 0.0009 | 1001.16
281.15 K, x1 = 0.0018 | 1002.49
281.15 K, x1 = 0.00359 | 1005.18
281.15 K, x1 = 0.00715 | 1010.61
281.15 K, x1 = 0.01069 | 1015.98
281.15 K, x1 = 0.01421 | 1020.99
281.15 K, x1 = 0.0177 | 1025.83
281.15 K, x1 = 0.02202 | 1031.18
281.15 K, x1 = 0.02631 | 1035.8
281.15 K, x1 = 0.03056 | 1038.63
281.15 K, x1 = 0.03478 | 1042.82
281.15 K, x1 = 0.0431 | 1048.23
281.15 K, x1 = 0.05128 | 1051.94
281.15 K, x1 = 0.07499 | 1057.83
282.15 K, x1 = 0.0009 | 1001.09
282.15 K, x1 = 0.0018 | 1002.4
282.15 K, x1 = 0.00359 | 1005.07
282.15 K, x1 = 0.00715 | 1010.44
282.15 K, x1 = 0.01069 | 1015.72
282.15 K, x1 = 0.01421 | 1020.68
282.15 K, x1 = 0.0177 | 1025.44
282.15 K, x1 = 0.02202 | 1030.69
282.15 K, x1 = 0.02631 | 1035.23
282.15 K, x1 = 0.03056 | 1038.05
282.15 K, x1 = 0.03478 | 1042.16
282.15 K, x1 = 0.0431 | 1047.12
282.15 K, x1 = 0.05128 | 1051.21
282.15 K, x1 = 0.07499 | 1057.05
283.15 K, x1 = 0.0009 | 1001
283.15 K, x1 = 0.0018 | 1002.3
283.15 K, x1 = 0.00359 | 1004.95
283.15 K, x1 = 0.00715 | 1010.26
283.15 K, x1 = 0.01069 | 1015.5
283.15 K, x1 = 0.01421 | 1020.38
283.15 K, x1 = 0.0177 | 1025.06
283.15 K, x1 = 0.02202 | 1030.21
283.15 K, x1 = 0.02631 | 1034.68
283.15 K, x1 = 0.03056 | 1037.44
283.15 K, x1 = 0.03478 | 1041.49
283.15 K, x1 = 0.0431 | 1046.41
283.15 K, x1 = 0.05128 | 1050.46
283.15 K, x1 = 0.07499 | 1056.3
288.15 K, x1 = 0.0009 | 1000.35
288.15 K, x1 = 0.0018 | 1001.6
288.15 K, x1 = 0.00359 | 1004.1
288.15 K, x1 = 0.00715 | 1009.15
288.15 K, x1 = 0.01069 | 1014.04
288.15 K, x1 = 0.01421 | 1018.72
288.15 K, x1 = 0.0177 | 1023.06
288.15 K, x1 = 0.02202 | 1027.79
288.15 K, x1 = 0.02631 | 1031.87
288.15 K, x1 = 0.03056 | 1035.33
288.15 K, x1 = 0.03478 | 1038.35
288.15 K, x1 = 0.0431 | 1042.93
288.15 K, x1 = 0.05128 | 1046.34
293.15 K, x1 = 0.0009 | 999.405
293.15 K, x1 = 0.0018 | 1000.6
293.15 K, x1 = 0.00359 | 1002.98
293.15 K, x1 = 0.00715 | 1007.76
293.15 K, x1 = 0.01069 | 1012.37
293.15 K, x1 = 0.01421 | 1016.75
293.15 K, x1 = 0.0177 | 1020.77
293.15 K, x1 = 0.02202 | 1025.18
293.15 K, x1 = 0.02631 | 1028.99
293.15 K, x1 = 0.03056 | 1032.22
293.15 K, x1 = 0.03478 | 1035.02
293.15 K, x1 = 0.0431 | 1039.41
293.15 K, x1 = 0.05128 | 1042.74
298.15 K, x1 = 0.0009 | 998.18
298.15 K, x1 = 0.0018 | 999.32
298.15 K, x1 = 0.00359 | 1001.59
298.15 K, x1 = 0.00715 | 1006.13
298.15 K, x1 = 0.01069 | 1010.49
298.15 K, x1 = 0.01421 | 1014.53
298.15 K, x1 = 0.0177 | 1018.3
298.15 K, x1 = 0.02202 | 1022.43
298.15 K, x1 = 0.02631 | 1026
298.15 K, x1 = 0.03056 | 1029.06
298.15 K, x1 = 0.03478 | 1031.68
298.15 K, x1 = 0.0431 | 1035.89
298.15 K, x1 = 0.05128 | 1039.06
303.15 K, x1 = 0.0009 | 996.74
303.15 K, x1 = 0.0018 | 997.82
303.15 K, x1 = 0.00359 | 999.99
303.15 K, x1 = 0.00715 | 1004.3
303.15 K, x1 = 0.01069 | 1008.43
303.15 K, x1 = 0.01421 | 1012.26
303.15 K, x1 = 0.0177 | 1015.77
303.15 K, x1 = 0.02202 | 1019.65
303.15 K, x1 = 0.02631 | 1022.97
303.15 K, x1 = 0.03056 | 1025.85
303.15 K, x1 = 0.03478 | 1028.34
303.15 K, x1 = 0.0431 | 1032.36
303.15 K, x1 = 0.05128 | 1035.44
308.15 K, x1 = 0.0009 | 995.085
308.15 K, x1 = 0.0018 | 996.14
308.15 K, x1 = 0.00359 | 998.22
308.15 K, x1 = 0.00715 | 1002.32
308.15 K, x1 = 0.01069 | 1006.21
308.15 K, x1 = 0.01421 | 1009.84
308.15 K, x1 = 0.0177 | 1013.13
308.15 K, x1 = 0.02202 | 1016.74
308.15 K, x1 = 0.02631 | 1019.88
308.15 K, x1 = 0.03056 | 1022.54
308.15 K, x1 = 0.03478 | 1024.97
308.15 K, x1 = 0.0431 | 1028.78
308.15 K, x1 = 0.05128 | 1031.82

Source: the NIST ThermoML archive (doi:10.1021/je900164a)
